From PubChem BioAssay (NCI) come the findings set out here.

Test systems include SK-OV-3 ovarian; UACC-257 melanoma; SW-620 colon; OVCAR-8 ovarian; OVCAR-4 ovarian; UO-31 renal; OVCAR-3 ovarian; MCF7 breast; A498 renal; HCT-116 colon; SK-MEL-5 melanoma.
What all share (experiment): DTP human tumour cell line panel, 48 h

Where “and” joins values, the source holds several entries; their conditions need not be identical. Identical values can stand only once.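 Grown in 96-well plates, cells were treated for 48 hours with each compound at five concentrations. Insufficient inhibition: endpoint recorded as highest concentration tested. Here, GI50 denotes the concentration required for 50% inhibition of growth. At the TGI there is no net growth.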

Take `CCOc1ccc(N/C(=C(/C(Cl)=C(/Cl)NCCN)[N+](=O)[O-])n2nnc3ccccc32)cc1`: the TGI was greater than 100 µM in the assay with SK-OV-3 ovarian; greater than 100 µM in the assay with UACC-257 melanoma; 21.6 µM in the assay with SW-620 colon; 30.4 µM in the assay with OVCAR-8 ovarian; greater than 100 µM in the assay on OVCAR-4 ovarian; greater than 100 µM with UO-31 renal. For the same compound, the TGI is 63.3 µM with OVCAR-3 ovarian, greater than 100 µM in the assay with MCF7 breast, greater than 100 µM in the assay on A498 renal and 74.6 µM in the assay on HCT-116 colon.
Turning to `COc1ccc(Nc2[nH]c(C(C)=O)c(N)c2C(=S)Nc2ccccc2)cc1`, the TGI in the assay on SK-OV-3 ovarian, with UACC-257 melanoma, in the assay on SW-620 colon, with OVCAR-8 ovarian, in the assay on OVCAR-4 ovarian and in the assay on SK-MEL-5 melanoma was greater than 100 µM each time. Besides, the TGI with UO-31 renal was greater than 100 µM; in the assay with OVCAR-3 ovarian, greater than 100 µM; in the assay with MCF7 breast, 68.6 µM; with A498 renal it was greater than 100 µM; with HCT-116 colon, greater than 100 µM.
On to `CCOC(=O)c1sc2nc(SC)nc3c2c1N=CN3c1ccc(Br)cc1`, for which the concentration for total growth inhibition (TGI) in the assay on SK-OV-3 ovarian, in the assay with UACC-257 melanoma, with SW-620 colon, with OVCAR-8 ovarian, with OVCAR-4 ovarian and in the assay on SK-MEL-5 melanoma was greater than 100 µM each time. Besides, the TGI with UO-31 renal, in the assay with OVCAR-3 ovarian, in the assay with MCF7 breast, in the assay on A498 renal and in the assay on HCT-116 colon was greater than 100 µM each time.
On to `O=C1CC2C=CC(O)C(C1)C2` (configuration not stated), for which the TGI with SK-OV-3 ovarian, with UACC-257 melanoma, in the assay on SW-620 colon, in the assay on OVCAR-8 ovarian, with OVCAR-4 ovarian and in the assay with UO-31 renal was greater than 100 µM each time. In addition, the TGI in the assay on OVCAR-3 ovarian, with MCF7 breast, in the assay with A498 renal and in the assay on HCT-116 colon was greater than 100 µM each time.
For the compound `Cc1ccccc1C1OC1C(=O)c1ccccc1N` (configuration not stated), the TGI with SK-OV-3 ovarian, in the assay with UACC-257 melanoma, in the assay on SW-620 colon, with OVCAR-8 ovarian, in the assay with OVCAR-4 ovarian and with SK-MEL-5 melanoma was greater than 100 µM each time. Also, the TGI with UO-31 renal, in the assay on MCF7 breast, in the assay with A498 renal and in the assay on HCT-116 colon was greater than 100 µM in each case.
For the compound `O=c1oc2ccccc2c(O)c1C(c1cc(OCc2ccccc2)cc(OCc2ccccc2)c1)c1c(O)c2ccccc2oc1=O`, the TGI with SK-OV-3 ovarian is 20.1 µM; in the assay on UACC-257 melanoma, 38.2 µM; in the assay with SW-620 colon, greater than 43.8 µM; in the assay with OVCAR-8 ovarian, greater than 44.5 µM; with OVCAR-4 ovarian it was 68.4 µM; in the assay on SK-MEL-5 melanoma, 21.2 µM. Also, the TGI in the assay on UO-31 renal was 19.9 µM; in the assay on OVCAR-3 ovarian, 35 µM; in the assay on MCF7 breast, 48.5 µM; with A498 renal, 32.1 µM; in the assay with HCT-116 colon it was 17.5 µM.
Take `CCN(CC)CCOC(c1cc(OC)ccc1OC)c1ccc2n1-c1ccccc1OC2` (configuration not stated): the TGI in the assay with UACC-257 melanoma came to 30.6 µM; in the assay with SW-620 colon, 21.1 µM; with OVCAR-8 ovarian it was 25.9 µM; in the assay with OVCAR-4 ovarian it was 31.9 µM; in the assay on SK-MEL-5 melanoma it was 22.2 µM; in the assay on UO-31 renal, 23 µM. The TGI in the assay on OVCAR-3 ovarian was 31 µM; in the assay with MCF7 breast it was 30.2 µM; in the assay with A498 renal it was 24.1 µM; with HCT-116 colon it was greater than 100 µM.
In the case of `COc1ccc(-c2c(C#N)c(S)n(C3OC(COC(C)=O)C(OC(C)=O)C(OC(C)=O)C3OC(C)=O)c(=O)c2C#N)cc1` (configuration not stated), the concentration for total growth inhibition (TGI) is 75.8 µM and > 100 µM with SK-OV-3 ovarian; > 100 µM and 42 µM with UACC-257 melanoma; greater than 100 µM in the assay on SW-620 colon; greater than 100 µM with OVCAR-8 ovarian; > 100 µM and 77.6 µM in the assay on OVCAR-4 ovarian; greater than 100 µM with SK-MEL-5 melanoma. In addition, the TGI was > 100 µM and 70.1 µM with UO-31 renal; > 100 µM and 61.6 µM with OVCAR-3 ovarian; greater than 100 µM in the assay with MCF7 breast; 90.5 µM and 77.3 µM in the assay on A498 renal; greater than 100 µM in the assay with HCT-116 colon. Besides, the GI50 in the assay on UACC-257 melanoma is > 100 µM and 19.8 µM; in the assay on SK-MEL-5 melanoma, 60.7 µM and 29.3 µM; with OVCAR-3 ovarian, > 100 µM and 23.8 µM.
Turning to `CCOC(=O)c1cc(C2(O)CCN(Cc3ccccc3)C2=O)c(-c2cc(C)no2)[nH]1` (configuration not stated), the TGI in the assay with UACC-257 melanoma, with SW-620 colon, in the assay on OVCAR-8 ovarian, with OVCAR-4 ovarian, in the assay on SK-MEL-5 melanoma and with UO-31 renal was greater than 100 µM throughout. For the same compound, the TGI in the assay on OVCAR-3 ovarian, with MCF7 breast, in the assay with A498 renal and in the assay on HCT-116 colon was greater than 100 µM each time.
With `CCOP(=O)(OCC)[C@H](O)c1ccsc1`, the TGI in the assay on SK-OV-3 ovarian, in the assay with UACC-257 melanoma, in the assay with SW-620 colon, with OVCAR-8 ovarian, in the assay with OVCAR-4 ovarian and in the assay on SK-MEL-5 melanoma was greater than 100 µM in each case. Also, the TGI in the assay on UO-31 renal, in the assay on MCF7 breast, with A498 renal and with HCT-116 colon was greater than 100 µM throughout.
With `Cc1ccc(-c2cc(N)n(-c3nc4c([nH]3)c(=O)n(C)c(=O)n4C)n2)cc1`, the TGI with SK-OV-3 ovarian was 16.1 µM; with UACC-257 melanoma, 82.3 µM; with OVCAR-8 ovarian it was 15.3 µM; in the assay with OVCAR-4 ovarian, greater than 100 µM; in the assay with SK-MEL-5 melanoma it was 17 µM; in the assay with UO-31 renal, 73.1 µM. The TGI with OVCAR-3 ovarian is 18.9 µM; in the assay with MCF7 breast it was greater than 100 µM; in the assay on A498 renal, 21 µM; with HCT-116 colon, 15.9 µM.
As to `c1cc(-c2cnc(-c3ccc4c(c3)CCCO4)o2)ccn1`, the TGI with SK-OV-3 ovarian is 57.3 µM; with UACC-257 melanoma, 28.8 µM; in the assay on OVCAR-8 ovarian, 27.6 µM; in the assay on OVCAR-4 ovarian, 42.3 µM; in the assay on SK-MEL-5 melanoma it was 25.4 µM; in the assay with UO-31 renal it was 25.3 µM. Further, the TGI in the assay with OVCAR-3 ovarian was 33.5 µM; in the assay with MCF7 breast it was 28.7 µM; with A498 renal, 25.8 µM; in the assay on HCT-116 colon, 31.6 µM.
As to `CC(C)(C)OC(=O)NC(C)(C)C(=O)NCCC(=O)O`, the concentration for total growth inhibition (TGI) in the assay with SK-OV-3 ovarian, in the assay on UACC-257 melanoma, in the assay on SW-620 colon, in the assay on OVCAR-8 ovarian, with OVCAR-4 ovarian and in the assay with SK-MEL-5 melanoma was greater than 100 µM throughout. The TGI in the assay on UO-31 renal, in the assay with OVCAR-3 ovarian, in the assay on MCF7 breast and in the assay with A498 renal was greater than 100 µM in each case.
